In experiment [1] the target is T1, MrgX2 (Homo sapiens, UniProt Q96LB1).
T1 construct: host or cells: recombinant HEK cells (A3); CHEM1 cells recombinantly expressing MrgX2 (A11)
T1 sequence (Q96LB1 1-330): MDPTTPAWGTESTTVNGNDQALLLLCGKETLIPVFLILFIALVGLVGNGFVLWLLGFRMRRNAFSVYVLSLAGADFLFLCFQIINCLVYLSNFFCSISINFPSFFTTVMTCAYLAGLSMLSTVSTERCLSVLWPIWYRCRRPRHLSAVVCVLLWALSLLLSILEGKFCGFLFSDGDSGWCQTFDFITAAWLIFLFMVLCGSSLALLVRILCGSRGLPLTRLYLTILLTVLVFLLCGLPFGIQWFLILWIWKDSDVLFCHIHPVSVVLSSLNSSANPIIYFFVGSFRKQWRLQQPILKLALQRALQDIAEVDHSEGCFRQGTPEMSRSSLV
Conditions: read-out: EC50 value; calcium assays, MrgX2 activation; cited from earlier work.

For another experiment, the target named is T2, human MrgX4 L83S (Homo sapiens, UniProt Q96LA9, L83S).
T2 construct: expressed in transfected cells; host or cells: CHO beta-arrestin cells
T2 sequence (Q96LA9 whole entry L83S): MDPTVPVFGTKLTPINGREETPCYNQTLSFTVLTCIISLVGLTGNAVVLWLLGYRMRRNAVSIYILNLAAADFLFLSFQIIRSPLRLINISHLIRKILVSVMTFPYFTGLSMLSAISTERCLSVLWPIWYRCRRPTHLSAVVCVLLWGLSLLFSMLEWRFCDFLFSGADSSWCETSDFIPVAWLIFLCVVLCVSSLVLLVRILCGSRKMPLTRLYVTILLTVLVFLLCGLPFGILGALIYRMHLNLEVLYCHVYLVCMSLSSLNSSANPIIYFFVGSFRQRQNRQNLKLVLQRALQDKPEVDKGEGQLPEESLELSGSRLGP
The experiment in a line: β-arrestin assay (CHO β-arrestin human MrgX4 L83S). It counts as cell-based.

In a further experiment the target is T3, human wildtype MrgX2 (Homo sapiens, UniProt Q96LB1).
T3 construct: expressed in transfected cells; host or cells: LN229 cells
T3 sequence (Q96LB1 1-330): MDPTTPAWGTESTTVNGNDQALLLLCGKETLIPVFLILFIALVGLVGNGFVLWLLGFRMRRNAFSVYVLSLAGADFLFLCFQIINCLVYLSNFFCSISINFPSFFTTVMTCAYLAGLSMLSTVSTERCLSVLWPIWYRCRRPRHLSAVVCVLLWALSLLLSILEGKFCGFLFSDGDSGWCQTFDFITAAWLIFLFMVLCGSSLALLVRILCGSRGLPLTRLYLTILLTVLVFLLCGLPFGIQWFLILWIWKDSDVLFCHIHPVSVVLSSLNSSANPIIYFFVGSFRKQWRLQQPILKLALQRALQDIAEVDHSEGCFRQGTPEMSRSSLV
Description: calcium assay (LN229 cells recombinantly expressing human wildtype MrgX2). It counts as cell-based. Conditions: for % inhibition ± SEM: test concentration not given.

The target of experiment [2] is T1, MrgX2. As to conditions: calcium assays; cited from earlier work.
For experiment [3], the target named is T1, MrgX2. Conditions: versus CST-14, calcium mobilization; cited from earlier work. A general note: Calcium assays in cells follow changes in intracellular calcium, usually with a dye or a luminescent sensor.
Experiment [4] concerns the target T1, MrgX2. Conditions: β-arrestin assay; cited from earlier work.
Experiment [5] has as its target T1, MrgX2. As to conditions: calcium mobilization assay; cited from earlier work.
A further experiment deals with human LAD2 mast cells. Conditions: cited from earlier work.
Experiment [6] addresses T1, MrgX2. Conditions: CHEM1 cell line recombinantly expressing MrgX2; cited from earlier work.
Experiment [7] concerns CHEM1 cells without MrgX2 overexpression. As to conditions: cited from earlier work.

Like-named read-outs stand apart in the source and are kept apart here. Ends that are not written are not given here. Some results are limits rather than exact numbers.

The values that follow come from patent US20210128561A1, “MRGX Receptor Antagonists” (Rheinische-Friedrich-Wilhelms-Universität Bonn, priority 2019, published 2021).

Consider `COc1ccc2c(c1)[C@@]13CCCC[C@H]1[C@@H](C2)NCC3` [3-methoxymorphinan], for which the EC50 (in general, the concentration that produces a half-maximal response) on MrgX2 [1] is 4700 nM.
On to `CCCc1[nH]c2nc3ccccc3n2c(=O)c1CCC` [B-45], for which the IC50 (as a rule, the point on the concentration scale where inhibition reaches its midpoint) against human MrgX4 L83S is 214 ± 32 nM. In addition, on human wildtype MrgX2, the IC50 is more than 100000 nM and the “% inhibition ± SEM” value was determined as 89%.
Take `O=c1c2c([nH]c3nc4ccccc4n13)CCCC2` [B-55]: half-maximal inhibition at human MrgX4 L83S (IC50) required 5660 ± 1150 nM. At human wildtype MrgX2, the IC50 was more than 100000 nM and the “% inhibition ± SEM” value is 20%.
On to `CC(C)c1cc(=S)n2c(nc3ccccc32)[nH]1` [B-56], for which the values for the IC50 at human MrgX4 L83S and at human wildtype MrgX2 were 148 ± 42 nM and 3.94 ± 1.67 nM, respectively.
On to `CCc1c(C(C)C)[nH]c2nc3ccc(C)cc3n2c1=O` [C-70], for which the IC50 against human MrgX4 L83S worked out at 147 ± 15 nM; on human wildtype MrgX2, 0.352 ± 0.07 nM.
Turning to `CCc1c(C(C)C)[nH]c2nc3cc(C)ccc3n2c1=O` [C-71], the IC50 stood at 91 ± 29.2 nM against human MrgX4 L83S and 0.446 ± 0.142 nM at human wildtype MrgX2.
Regarding `CCc1c(C(C)C)[nH]c2nc3cc(F)ccc3n2c1=O` [C-74], the figures for the IC50 against human MrgX4 L83S and on human wildtype MrgX2 were 18 ± 4.4 nM and 1.26 ± 0.29 nM, respectively.
The matching figures for `CCc1c(C(C)C)[nH]c2nc3cc(Br)c(Br)cc3n2c1=O` [C-75]: 890 ± 184 nM and 36.8 ± 8.4 nM.
In the case of `CCc1c(CC(C)C)[nH]c2nc3ccccc3n2c1=O` [C-78], the concentration for half-maximal inhibition (IC50) on human MrgX4 L83S amounted to 468 ± 52 nM; on human wildtype MrgX2, 51.3 ± 19.1 nM.
For `CCc1c(-c2ccccc2)[nH]c2nc3ccccc3n2c1=O` [C-79], the IC50 at human MrgX4 L83S came out at 540 ± 76 nM. Also, at human wildtype MrgX2, the IC50 is more than 10000 nM and the “% inhibition ± SEM” value worked out at 105%.
`CCCc1c(CC)c(=O)n2c([nH]c3ccccc32)c1C#N` [C-88]: the IC50 against human MrgX4 L83S is 5540 ± 1740 nM. Besides, on human wildtype MrgX2, the IC50 is more than 10000 nM and the “% inhibition ± SEM” value was 86%.
With `C[C@@H]1C[C@H]2Cc3ncc(-c4ccc5c(n4)C[C@@H]4C[C@@H](C)C[C@]56NCCC[C@H]46)cc3[C@]3(C1)NCCC[C@H]23` [Complanadine A], the EC50 on MrgX2 [2] was 5500 nM.
For `CC(=O)N1c2ccccc2Nc2ccccc21` [Compound 1, 1-(5H-10λ^2-phenazin-5-yl)ethan-lone], at MrgX2 [3], the IC50 is 1600 nM.
As to `CN1CC[C@]2(c3cccc(O)c3)Cc3nc4ccccc4cc3C[C@H]2C1` [TAN-67], the EC50 on MrgX2 [4] and at MrgX2 [5] was approximately 1000 nM throughout.
Consider `O=c1c2ccccc2[nH]c(=S)n1Cc1ccccn1` [compound 2, 3-(pyridine-2-ylmethyl)-2-thioxo-2,3-dihydro-4H-1λ^2-quinazolin-4-one], for which the IC50 at MrgX2 [3] is 2500 nM.
With `CN1CC[C@@]23CCCC[C@@H]2[C@@H]1Cc1ccc(O)cc13` [dextrorphan], the EC50 on MrgX2 [1] was 1400 nM.
Turning to `O=C(/C=C/c1ccc(O)cc1)c1ccc(O)cc1O` [isoliquiritigenin, Isoliquiritigenin], the “β-hexosaminidase release of compound 48/80 and isoliquiritigenin together” value in the experiment with human LAD2 mast cells (50 μM isoliquiritigenin vs. 30 μg/mL (≈31.2 μM) compound 48/80, LAD2) is 40%.
In the case of `CN1CC[C@]23c4c5ccc(O)c4O[C@H]2[C@@H](O)C=C[C@H]3[C@H]1C5` [morphine], the EC50 at MrgX2 [1] is 4500 nM.
Turning to `C[C@H]1O[C@@H](O[C@H]2CC[C@@]3(C)[C@@H](CC[C@]4(C)[C@@H]3C=C[C@]35OC[C@@]6(CCC(C)(C)C[C@H]63)[C@@H](O)C[C@]54C)[C@]2(C)CO)[C@H](O)[C@@H](O[C@@H]2O[C@H](CO)[C@@H](O)[C@H](O)[C@H]2O)[C@H]1O` [saikosaponin A, Saikosaponin A], in the experiment with human LAD2 mast cells (0.50 μM saikosaponin A vs. 30 μg/mL (≈31.2 μM) compound 48/80, LAD2), the “β-hexosaminidase release of substance P and saikosaponin A together” value was 30%.
As for Gln-D-Trp(Formyl-)Phe-benzylester [QWF], in the experiment with human LAD2 mast cells (100 μM QWF vs. 1 μM substance P, LAD2), the “β-hexosaminidase release of SP and QWF together” value is 20%.
In the case of “substance P (RPKPQQFFGLM-NH2; ends and bridges not checked; UniProt P20366 58-68, looked up)”, the “β-hexosaminidase release of SP alone” value in the experiment on human LAD2 mast cells (1 μM substance P, LAD2) is recorded as 60%. Also, the “β-hexosaminidase release of substance P alone” value in the experiment on human LAD2 mast cells (saikosaponin A study, stimulus stated as 30 μg/mL compound 48/80, LAD2) was 100%.

B1: CXCL14: small chemokine (C-X-C motif) ligand 14 (protein, UniProt O95715 35-111, looked up)
C-X-C motif chemokine 14: SKCKCSRKGPKIRYSDVKKLEMKPKYPHCEEKMVIITTKSVSRYRGQEHCLHPKLQSTKRFIKWYNAWNEKRRVYEE
For B1, the EC50 in the experiment with MrgX2 [6] was 570 nM. The calcium release entry in experiment [7] is “not to mediate calcium release”.
